From patent US20090176839A1, “FORMULATIONS OF 3-(6-(1-(2,2-DIFLUOROBENZO[D][1,3]DIOXOL-5-YL) CYCLOPROPANECARBOXAMIDO)-3-METHYLPYRIDIN-2-YL)BENZOIC ACID” (priority 2007, published 2009)
Read-outs that look alike come from different tables or passages of the source.

Key:
[1] = Acute oral toxicity study in mice; conditions: mouse, in vivo, po
Experimental: (§1) The intended clinical route of administration is oral, thus oral toxicity studies were done in mice, rats and dogs. […] Effects of repeat oral dosing were assessed in rats and dogs in preliminary 7-day toxicity studies followed by a 14-day GLP1 toxicity studies.

mice = assay: Acute oral toxicity study in mice; conditions: mice; single oral doses 500, 1000 or 2000 mg/kg
Experimental: as §1

[2] = Toxicokinetics in acute oral toxicity study in mice; assay type: in vivo; conditions: plasma
Source text: Compound 1 was well absorbed in mice with time to reach maximum plasma concentrations (tmax) ranging from 0.5 to 2.0 hr. […] There were no significant gender-related effects in Compound 1 exposures noted.

[3] = Toxicokinetics in 14-day oral toxicity study in rats; conditions: rat, in vivo, 600 mg/kg/day
Source text: There were no major differences noted in TK parameters between males and females, or when comparing study Day 1 to study Day 14.

[4] = Toxicokinetics in 7-day dose range finding study in dogs; assay type: in vivo; conditions: 100 mg/kg/day; for Cmax: dog, plasma, oral
Experimental: One dog per gender was dosed orally with the vehicle (0.5% methylcellulose+0.5% Tween80 in water), or 25, 50, or 100 mg/kg/day Compound 1 for 7 consecutive days. The dose volume was 5 mL/kg/day for all dose groups. Plasma samples were collected on Days 1 and 7 for TK analysis and viability, clinical observations, body weights, feed consumption, clinical pathology (termination), organ weights, macroscopic observations, and microscopic pathology were evaluated.
The plasma AUC0-24 data on Day 1 was consistent with previously conducted single dose studies of Compound 1 in the dog.

[5] = Tissue distribution in male rats after single oral dose of 75 mg/kg; assay type: in vivo, male Sprague Dawley rats; conditions: 75 mg/kg oral; for Kp at 1 h / Kp at 4 hr / Kp at 12 hr / Kp / Kp at 48 hr: po, 75 mg/kg
Experimental: Following a single oral administration of unlabelled Compound 1 to rats, the highest distribution was to the liver followed by lung, pancreas and brain with tissue-to-plasma ratios of 0.73, 0.19, 0.13 and 0.02, respectively, at one hour following oral administration of 75 mg/kg. Elimination of Compound 1 was nearly complete from all tissues 48 hours after administration (concentrations less than 1 μg/mL). Although the distribution to the lung is low relative to plasma, the concentrations measured in lung at low and moderate doses are predicted to be efficacious.

Solubility (statement) = assay type: physicochemical; conditions: aqueous medium
[6] = male, beagle, dog, in vivo, 200 mg/kg
in vivo = conditions: rat, po
Experimental: Repeat-dose oral toxicity studies of 7- and 14-days duration have been conducted in rats (up to 600 mg/kg/day) and dogs (up to 200 mg/kg/day).

[7] = Sprague Dawley, rat, male rats, Brain
[8] = Sprague Dawley, rat, male rats, Liver
[9] = Sprague Dawley, rat, male rats, Lung
[10] = Sprague Dawley, rat, male rats, Pancreas
[11] = Sprague Dawley, rat, male rats, Plasma

## Cc1ccc(NC(=O)C2(c3ccc4c(c3)OC(F)(F)O4)CC2)nc1-c1cccc(C(=O)O)c1 [Compound 1, 3-(6-(1-(2,2-difluorobenzo[d][1,3]dioxol-5-yl)cyclopropanecarboxamido)-3-methylpyridin-2-yl)benzoic acid]
[1]
  MTD at 14 days: > 2000 mg/kg
  NOAEL at 14 days: > 2000 mg/kg
mice
  organ weights and gross observations at necropsy: no effects on organ weights and no gross observations
[2]; CD-1, mouse, 2000 mg/kg, Female
  Cmax: 325 µg/mL
[2]; CD-1, mouse, 2000 mg/kg, Female, read-out: AUC0-24 h
  AUC(0-t): 2900 µg·h/mL
[2]; CD-1, mouse, 2000 mg/kg, Female, read-out: tmax
  Tmax: 1 h
[2]; CD-1, mouse, 2000 mg/kg, Male
  Cmax: 264 µg/mL
[2]; CD-1, mouse, 2000 mg/kg, Male, read-out: AUC0-24 h
  AUC(0-t): 2680 µg·h/mL
[2]; CD-1, mouse, 2000 mg/kg, Male, read-out: tmax
  Tmax: 1 h
[2]; both sexes, mouse, 500 to 2000 mg/kg, read-out: elimination half-life (t1/2)
  half-life: 4.1 to 8.6 h
[2]; both sexes, mouse, 500 to 2000 mg/kg, read-out: time to reach maximum plasma concentrations (tmax)
  Tmax: 0.5 to 2 h
[2]; female, mouse, females at 500 mg/kg, read-out: AUC0-24hr
  AUC(0-t): 1840 µg·h/mL
[2]; female, mouse, females at 2000 mg/kg
  Cmax: 325 µg/mL
[2]; male, mouse, males at 500 mg/kg
  Cmax: 142 µg/mL
[3]; both sexes, rats, at the NOAEL (600 mg/kg/day), read-out: average AUC0-24hr
  AUC(0-t): 3950 µg·h/mL
[3]; both sexes, rats, at the NOAEL (600 mg/kg/day), read-out: average Cmax
  Cmax: 222 µg/mL
[3]; female, Sprague Dawley, Study Day 1, Female
  Tmax: 4 h
[3]; female, Sprague Dawley, Study Day 1, Female, read-out: AUC0-24 hr
  AUC(0-t): 4430 µg·h/mL
[3]; female, Sprague Dawley, Study Day 1, Female, read-out: Cmax
  Cmax: 273 µg/mL
[3]; female, Sprague Dawley, Study Day 14, Female
  Tmax: 10 h
[3]; female, Sprague Dawley, Study Day 14, Female, read-out: AUC0-24 hr
  AUC(0-t): 5500 µg·h/mL
[3]; female, Sprague Dawley, Study Day 14, Female, read-out: Cmax
  Cmax: 272 µg/mL
[3]; male, Sprague Dawley, Study Day 1, Male
  Tmax: 10 h
[3]; male, Sprague Dawley, Study Day 1, Male, read-out: AUC0-24 hr
  AUC(0-t): 2660 µg·h/mL
[3]; male, Sprague Dawley, Study Day 1, Male, read-out: Cmax
  Cmax: 164 µg/mL
[3]; male, Sprague Dawley, Study Day 14, Male
  Tmax: 10 h
[3]; male, Sprague Dawley, Study Day 14, Male, read-out: AUC0-24 hr
  AUC(0-t): 3220 µg·h/mL
[3]; male, Sprague Dawley, Study Day 14, Male, read-out: Cmax
  Cmax: 181 µg/mL
[4]; female
  average plasma concentrations: 38 µM
  Cmax: ~130 µM
[4]; male
  average plasma concentrations: 16 µM
  Cmax: ~110 µM
[5]; [7]
  Cmax: 0.957 µg/mL
  Tmax: 4 h
[5]; Sprague Dawley, rat, male rats, Brain, footnote a: AUCall
  AUC: 9.3 µg·h/mL
[5]; Sprague Dawley, rat, male rats, Brain, read-out: Clast
  concentration at 12 hr: 0.546 µg/mL
[5]; [8]
  AUC(0-inf): 885 µg·h/mL
  Cmax: 38.1 µg/mL
  Tmax: 4 h
  half-life: 8.06 h
[5]; Sprague Dawley, rat, male rats, Liver, read-out: Clast
  concentration at 48 hr: 0.965 µg/mL
[5]; [9]
  AUC(0-inf): 187 µg·h/mL
  Cmax: 9.14 µg/mL
  Tmax: 1 h
  half-life: 7.79 h
[5]; Sprague Dawley, rat, male rats, Lung, read-out: Clast
  concentration at 48 hr: 0.189 µg/mL
[5]; [10]
  AUC(0-inf): 132 µg·h/mL
  Cmax: 6.83 µg/mL
  Tmax: 4 h
  half-life: 6.87 h
[5]; Sprague Dawley, rat, male rats, Pancreas, read-out: Clast
  concentration at 48 hr: 0.086 µg/mL
[5]; [11]
  AUC(0-inf): 980 µg·h/mL
  Cmax: 59.1 µg/mL
  Tmax: 4 h
  half-life: 6.15 h
[5]; Sprague Dawley, rat, male rats, Plasma, read-out: Clast
  concentration at 48 hr: 0.542 µg/mL
[5]; male rats, 1 hr
  Tissue Concentrations, Brain: 0.93 μg/mL or μg/g
  Tissue Concentrations, Liver: 34.7 μg/mL or μg/g
  Tissue Concentrations, Lung: 9.14 μg/mL or μg/g
  Tissue Concentrations, Pancreas: 6.03 μg/mL or μg/g
  Tissue Concentrations, Plasma: 47.3 μg/mL or μg/g
[5]; male rats, 4 hr
  Tissue Concentrations, Brain: 0.96 μg/mL or μg/g
  Tissue Concentrations, Liver: 38.1 μg/mL or μg/g
  Tissue Concentrations, Lung: 8.99 μg/mL or μg/g
  Tissue Concentrations, Pancreas: 6.83 μg/mL or μg/g
  Tissue Concentrations, Plasma: 59.1 μg/mL or μg/g
[5]; male rats, 12 hr
  Tissue Concentrations, Brain: 0.55 μg/mL or μg/g
  Tissue Concentrations, Liver: 26.3 μg/mL or μg/g
  Tissue Concentrations, Lung: 5.17 μg/mL or μg/g
  Tissue Concentrations, Pancreas: 3.65 μg/mL or μg/g
  Tissue Concentrations, Plasma: 24.8 μg/mL or μg/g
[5]; male rats, 48 hr
  Tissue Concentrations, Brain: BLQ
  Tissue Concentrations, Liver: 0.97 μg/mL or μg/g
  Tissue Concentrations, Lung: 0.19 μg/mL or μg/g
  Tissue Concentrations, Pancreas: 0.09 μg/mL or μg/g
  Tissue Concentrations, Plasma: 0.54 μg/mL or μg/g
[5]; male rats, Brain
  tlast: 12 h
[5]; male rats, Liver
  tlast: 48 h
[5]; male rats, Lung
  tlast: 48 h
[5]; male rats, Pancreas
  tlast: 48 h
[5]; male rats, Plasma
  tlast: 48 h
[5]; male, Sprague Dawley, rat, all tissues (liver, lung, pancreas, brain), rats, 48 hours after administration, read-out: concentrations in all tissues
  concentration at 48 h: < 1 µg/mL
[5]; male, Sprague Dawley, rat, brain, male rats, 1 hr, read-out: Tissue/Plasma Ratio, Brain
  Kp at 1 h: 0.02
[5]; male, Sprague Dawley, rat, brain, male rats, 4 hr, read-out: Tissue/Plasma Ratio, Brain
  Kp at 4 hr: 0.02
[5]; male, Sprague Dawley, rat, brain, male rats, 12 hr, read-out: Tissue/Plasma Ratio, Brain
  Kp at 12 hr: 0.02
[5]; male, Sprague Dawley, rat, brain, male rats, Brain, read-out: Cmax Ratio (Tissue/Plasma)
  Kp: 0.02
[5]; male, Sprague Dawley, rat, brain, rats, 1 to 48 hours after administration, read-out: tissue-to-plasma concentration ratios, brain
  Kp: 0.02
[5]; male, Sprague Dawley, rat, liver, male rats, 1 hr, read-out: Tissue/Plasma Ratio, Liver
  Kp at 1 h: 0.73
[5]; male, Sprague Dawley, rat, liver, male rats, 4 hr, read-out: Tissue/Plasma Ratio, Liver
  Kp at 4 hr: 0.64
[5]; male, Sprague Dawley, rat, liver, male rats, 12 hr, read-out: Tissue/Plasma Ratio, Liver
  Kp at 12 hr: 1.06
[5]; male, Sprague Dawley, rat, liver, male rats, 48 hr, read-out: Tissue/Plasma Ratio, Liver
  Kp at 48 hr: 1.78
[5]; male, Sprague Dawley, rat, liver, male rats, Liver, read-out: Cmax Ratio (Tissue/Plasma)
  Kp: 0.64
[5]; male, Sprague Dawley, rat, liver, rats, 1 to 48 hours after administration, read-out: tissue-to-plasma concentration ratios, liver
  Kp: 0.7 to 1.8
[5]; male, Sprague Dawley, rat, lung, male rats, 1 hr, read-out: Tissue/Plasma Ratio, Lung
  Kp at 1 h: 0.19
[5]; male, Sprague Dawley, rat, lung, male rats, 4 hr, read-out: Tissue/Plasma Ratio, Lung
  Kp at 4 hr: 0.15
[5]; male, Sprague Dawley, rat, lung, male rats, 12 hr, read-out: Tissue/Plasma Ratio, Lung
  Kp at 12 hr: 0.21
[5]; male, Sprague Dawley, rat, lung, male rats, 48 hr, read-out: Tissue/Plasma Ratio, Lung
  Kp at 48 hr: 0.35
[5]; male, Sprague Dawley, rat, lung, male rats, Lung, read-out: Cmax Ratio (Tissue/Plasma)
  Kp: 0.15
[5]; male, Sprague Dawley, rat, lung, rats, 1 to 48 hours after administration, read-out: tissue-to-plasma concentration ratios, lung
  Kp: 0.15 to 0.35
[5]; male, Sprague Dawley, rat, pancreas, male rats, 1 hr, read-out: Tissue/Plasma Ratio, Pancreas
  Kp at 1 h: 0.13
[5]; male, Sprague Dawley, rat, pancreas, male rats, 4 hr, read-out: Tissue/Plasma Ratio, Pancreas
  Kp at 4 hr: 0.12
[5]; male, Sprague Dawley, rat, pancreas, male rats, 12 hr, read-out: Tissue/Plasma Ratio, Pancreas
  Kp at 12 hr: 0.15
[5]; male, Sprague Dawley, rat, pancreas, male rats, 48 hr, read-out: Tissue/Plasma Ratio, Pancreas
  Kp at 48 hr: 0.15
[5]; male, Sprague Dawley, rat, pancreas, male rats, Pancreas, read-out: Cmax Ratio (Tissue/Plasma)
  Kp: 0.12
[5]; male, Sprague Dawley, rat, pancreas, rats, 1 to 48 hours after administration, read-out: tissue-to-plasma concentration ratios, pancreas
  Kp: 0.12 to 0.15
Solubility (statement)
  solubility: low solubility
[6]
  F: 20%
  tlast: 48 h
In vivo
  NOAEL at 14 days: 600 mg/kg/day
